Test results published in patent US20240067651A1 (Biohaven Therapeutics Ltd., priority 2019, published 2024).
Blank lines part the entries; values can stand above or below the compound they belong to.

Columns and labels:
[1] = Stability in Simulated Gastric Fluid (SGF); type: in vitro ADME; parameters: key: % parent compound remaining relative to 0-minute sample
Procedure, shortened: (§1)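 Percent parent compound remaining, by LC-MS/MS against the 0-minute sample, is reported after incubation at 2 μg/mL (final) in pepsin-containing SGF at pH 1.2 or pancreatin-containing SIF at pH 6.8. Incubations run at 37° C for up to 60 minutes.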

[2] = Caco-2 Permeability Assay; type: in vitro ADME, human; details: human
Procedure, shortened: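 Caco-2 monolayers cultured 21 days (TEER >600 […]); test article at 10 μM in HBSS/HEPES pH 7.4 transport medium, dosed apical or basolateral, ±Pgp inhibitor. Incubated 90 min at 37 °C; both compartments quantified by LC-MS/MS. Papp (A→B, B→A), efflux ratio and % recovery calculated.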

Plasma Stability = type: in vitro ADME, human
Procedure, shortened: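 Compounds incubated at 1 μM in fresh human plasma for 1 hour at 37° C, then protein-precipitated with acetonitrile/formic acid containing internal standard. Remaining parent measured by LC-MS/MS in triplicate, expressed as percent of control remaining.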

[3] = Stability in Simulated Intestinal Fluid (SIF); type: in vitro ADME; parameters: key: % parent compound remaining relative to 0-minute sample
Procedure, shortened: as §1

[4] = bare number, unit or time not given
[5] = % remaining at 1 h in simulated gastric fluid, the 15th table
[6] = Caco-2, pH 7.4, Caco-2 monolayer, the 15th table
[7] = % remaining at 1 h in human plasma, the 15th table
[8] = % remaining at 1 h in simulated intestinal fluid, the 15th table
[9] = Caco-2, pH 7.4, Caco-2 monolayer
[10] = % remaining at 1 h in simulated gastric fluid
[11] = % remaining at 1 h in human plasma
[12] = % remaining at 1 h in simulated intestinal fluid
[13] = % remaining at 1 h, SGF with pepsin pH 1.2, 2 μg/mL, 37° C.
[14] = Caco-2, pH 7.4, donor 10 μM, 90 minutes, 37° C., direction not given
[15] = % remaining at 1 h, human plasma, 1 μM, 37° C.
[16] = % remaining at 1 h, SIF with pancreatin pH 6.8, 2 μg/mL, 37° C.
[17] = bare number, no % and no time given
[18] = simulated gastric fluid, at 1 h
[19] = simulated intestinal fluid, at 1 h

SGF [1, 5]: 100% remaining
Papp at 90 min, 10 µM [2, 6]: 9.76 ×10⁻⁶ cm/s
human Plasma stability (Plasma Stability; [7]): 2% remaining
SIF [3, 8]: 75% remaining
SMILES: COC(=O)OCSc1nc(=O)c2[nH]ccc2n1CCOC(C)C [Example 200]

SGF [1, 13]: 78%
Papp at 90 min, 10 µM [2, 14]: 6.54 ×10⁻⁶ cm/s
human Plasma stability (Plasma Stability; [15]): 30%
SIF [3, 16]: 90%
SMILES: CC(C)OCCn1c(=S)[nH]c(=O)c2c1ccn2COC(=O)[C@@H]1CCC(=O)N1C(=O)OC(C)(C)C [Example 85, 1-tert-Butyl 2-{4-oxo-1-[2-(propan-2-yloxy)ethyl]-2-sulfanylidene-1H,2H,3H,4H,5H-pyrrolo[3,2-d]pyrimidin-5-yl}methyl (2S)-5-oxopyrrolidine-1,2-dicarboxylate]

SGF [1, 5]: 99% remaining
Papp at 90 min, 10 µM [2, 6]: 13.4 ×10⁻⁶ cm/s
human Plasma stability (Plasma Stability; [7]): 1% remaining
SIF [3, 8]: 63% remaining
SMILES: CC(C)OCCn1c(SCOC(=O)OC(C)C)nc(=O)c2[nH]ccc21 [Example 203]

SGF [1, 13]: 1%
Papp at 90 min, 10 µM [2, 14]: 18.3 ×10⁻⁶ cm/s
human Plasma stability (Plasma Stability; [15]): 98%
SIF [3, 16]: 93%
SMILES: CC(C)OCCn1c(SC(C)OC(=O)N(C(C)C)C(C)C)nc(=O)c2[nH]ccc21 (centres unmarked) [Example 208, 1-({4-Oxo-1-[2-(propan-2-yloxy)ethyl]-1H,4H,5H-pyrrolo[3,2-d]pyrimidin-2-yl}sulfanyl)ethyl N,N-bis(propan-2-yl)carbamate]

SGF [1, 18]: 52% remaining
Papp at 90 min, 10 µM [2, 9]: 15.6 ×10⁻⁶ cm/s
human Plasma stability (Plasma Stability; human plasma, at 1 h): 81% remaining
SIF [3, 19]: 96% remaining
SMILES: Cc1ccccc1N(C)C(=O)OCSc1nc(=O)c2[nH]ccc2n1CCOC(C)C [Example 242]

SGF [1, 13]: 62%
Papp at 90 min, 10 µM [2, 14]: 3 ×10⁻⁶ cm/s
human Plasma stability (Plasma Stability; [15]): 21%
SIF [3, 16]: 82%
SMILES: CC(C)OCCn1c(=S)n(COC(=O)C(C)(C)C)c(=O)c2c1ccn2COC(=O)C(C)(C)C [Example 143, 2,2-Dimethyl-propionic acid 5-(2,2-dimethyl-propionyloxymethyl)-1-(2-isopropoxy-ethyl)-4-oxo-2-thioxo-1,2,4,5-tetrahydro-pyrrolo[3,2-d]pyrimidin-3-ylmethyl ester]

SGF [1, 18]: 64% remaining
Papp at 90 min, 10 µM [2, 9]: 3.99 ×10⁻⁶ cm/s
human Plasma stability (Plasma Stability; human plasma, at 1 h): 31% remaining
SIF [3, 19]: 81% remaining
SMILES: Cc1cccc(N(C)C(=O)OCn2c(=O)c3c(ccn3COC(=O)N(C)c3cccc(C)c3)n(CCOC(C)C)c2=S)c1 [Example 247]

More lines, now with the values behind:

SMILES: CC(C)OCCn1c(=S)[nH]c(=O)c2c1ccn2COC(=O)CCCCOC(=O)[C@H](N)Cc1ccccc1.O=C(O)C(F)(F)F [Example 341, trifluoroacetic acid {4-oxo-1-[2-(propan-2-yloxy)ethyl]-2-sulfanylidene-1H,2H,3H,4H,5H-pyrrolo[3,2-d]pyrimidin-5-yl}methyl 5-{[(2R)-2-amino-3-phenylpropanoyl]oxy}pentanoate]
SGF [1, 4]: 99
Papp at 90 min, 10 µM ([2]; Caco-2, pH 7.4): 0.259 ×10⁻⁶ cm/s
human Plasma stability (Plasma Stability; % remaining @ 1 h): 1% remaining
SIF [3, 4]: 33

SMILES: COC(=O)OCSc1nc(=O)c2c(ccn2CSc2nc(=O)c3[nH]ccc3n2CCOC(C)C)n1CCOC(C)C [Example 199]
SGF [1, 5]: 47% remaining
Papp at 90 min, 10 µM [2, 6]: 5.54 ×10⁻⁶ cm/s
human Plasma stability (Plasma Stability; [7]): 46% remaining
SIF [3, 8]: 79% remaining

SMILES: CC(C)OCCn1c(SCOC(=O)N(C)C(C)(C)C)nc(=O)c2[nH]ccc21.O=C(O)C(F)(F)F [Example 167]
SGF ([1]; % @ 1 h (remaining) in simulated gastric fluid): 99% @ 1 h
Papp at 90 min, 10 µM [2, 9]: 17.8 ×10⁻⁶ cm/s
human Plasma stability (Plasma Stability; % @ 1 h (remaining) in human plasma): 98% @ 1 h
SIF ([3]; % @ 1 h (remaining) in simulated intestinal fluid): 99% @ 1 h

SMILES: CC(C)OCCn1c(=S)n(COC(=O)CCCCOC(=O)[C@H](N)C(C)C)c(=O)c2c1ccn2COC(=O)CCCCOC(=O)[C@H](N)C(C)C.O=C(O)C(F)(F)F.O=C(O)C(F)(F)F [Example 339, bis(trifluoroacetic acid) (3-{[(5-{[(2R)-2-amino-3-methylbutanoyl]oxy}pentanoyl)oxy]methyl}-4-oxo-1-[2-(propan-2-yloxy)ethyl]-2-sulfanylidene-1H,2H,3H,4H,5H-pyrrolo[3,2-d]pyrimidin-5-yl)methyl 5-{[(2R)-2-amino-3-methylbutanoyl]oxy}pentanoate]
SGF [1, 4]: 99
Papp at 90 min, 10 µM ([2]; Caco-2, pH 7.4): 3.86 ×10⁻⁶ cm/s
human Plasma stability (Plasma Stability; % remaining @ 1 h): 44% remaining
SIF [3, 4]: 72

SMILES: CC(C)C[C@H](NC(=O)OC(C)(C)C)C(=O)OCn1c(=O)c2c(ccn2COC(=O)[C@H](CC(C)C)NC(=O)OC(C)(C)C)n(CCOC(C)C)c1=S [Example 316, [3-({[(2S)-2-{[(tert-butoxy)carbonyl]amino}-4-methylpentanoyl]oxy}methyl)-4-oxo-1-[2-(propan-2-yloxy)ethyl]-2-sulfanylidene-1H,2H,3H,4H,5H-pyrrolo [3,2-d]pyrimidin-5-yl]methyl (2S)-2-{[(tert-butoxy)carbonyl]amino}-4-methylpentanoate]
SGF ([1]; % remaining @ 1 h): 99%@ 1 h
Papp at 90 min, 10 µM ([2]; Caco-2, pH 7.4): 7.6 ×10⁻⁶ cm/s
human Plasma stability (Plasma Stability; % remaining @ 1 h): 37%@ 1 h
SIF ([3]; % remaining @ 1 h): 6%@ 1 h

SMILES: COC(=O)N1CCCC1C(=O)NCCC(=O)OCn1ccc2c1c(=O)[nH]c(=S)n2CCOC(C)C.O=C(O)C(F)(F)F (centres unmarked) [Example 60]
SGF [1, 10]: 99% remaining
Papp at 90 min, 10 µM [2, 9]: 0.611 ×10⁻⁶ cm/s
human Plasma stability (Plasma Stability; [11]): 37% remaining
SIF [3, 12]: 88% remaining

SMILES: CSCC[C@H](NC(=O)OCC1c2ccccc2-c2ccccc21)C(=O)NCCCCC(=O)OCn1ccc2c1c(=O)[nH]c(=S)n2CCOC(C)C.O=C(O)C(F)(F)F [Example 20]
SGF [1, 10]: 80% remaining
Papp at 90 min, 10 µM [2, 9]: 0.985 ×10⁻⁶ cm/s
human Plasma stability (Plasma Stability; [11]): 64% remaining
SIF [3, 12]: 76% remaining

SMILES: CC(C)OCCn1c(=S)[nH]c(=O)c2c1ccn2COC(=O)CCNC(=O)[C@@H](NC(=O)OC(C)(C)C)C(C)C [Example 11, {4-oxo-1-[2-(propan-2-yloxy)-ethyl]-2-sulfanylidene-1H,2H,3H,4H,5H-pyrrolo[3,2-d]pyrimidin-5-yl}methyl3-[(2S)-2-{[(tert-butoxy)carbonyl]amino}-3-methylbutanamido]propanoate]
SGF [1, 13]: 74%
Papp at 90 min, 10 µM [2, 14]: 1.44 ×10⁻⁶ cm/s
human Plasma stability (Plasma Stability; [15]): 99%
SIF [3, 16]: 69%

SMILES: CC(C)OCCn1c(=S)n(COC(=O)N(CC(F)(F)F)CC(F)(F)F)c(=O)c2c1ccn2COC(=O)N(CC(F)(F)F)CC(F)(F)F [Example 98, [3-({[bis(2,2,2-trifluoroethyl)carbamoyl]oxy}methyl)-4-oxo-1-[2-(propan-2-yloxy)ethyl]-2-sulfanylidene-1H, 2H,3H,4H,5H-pyrrolo[3,2-d]pyrimidin-5-yl]methyl N,N-bis(2,2,2-trifluoroethyl)carbamate]
SGF [1, 17]: 95
Papp at 90 min, 10 µM [2, 14]: 6.53 ×10⁻⁶ cm/s
human Plasma stability (Plasma Stability; [15]): 99% remaining
SIF [3, 17]: 80

SMILES: COC(=O)n1ccc2c1c(=O)[nH]c(=S)n2CCOC(C)C [Example 233]
SGF [1, 18]: 98% remaining
Papp at 90 min, 10 µM [2, 9]: 0.314 ×10⁻⁶ cm/s
human Plasma stability (Plasma Stability; human plasma, at 1 h): 2% remaining
SIF [3, 19]: 70% remaining

SMILES: CC(C)C[C@H](N)C(=O)OCn1c(=O)c2c(ccn2COC(=O)[C@@H](N)CC(C)C)n(CCOC(C)C)c1=S.O=C(O)C(F)(F)F.O=C(O)C(F)(F)F [Example 322, bis(trifluoroacetic acid) [3-({[(2S)-2-amino-4-methylpentanoyl]oxy}methyl)-4-oxo-1-[2-(propan-2-yloxy)ethyl]-2-sulfanylidene-1H,2H,3H,4H,5H-pyrrolo[3,2-d]pyrimidin-5-yl]methyl (2S)-2-amino-4-methylpentanoate]
SGF ([1]; % remaining @ 1 h): 56%@ 1 h
Papp at 90 min, 10 µM ([2]; Caco-2, pH 7.4): < 0.106 ×10⁻⁶ cm/s
human Plasma stability (Plasma Stability; % remaining @ 1 h): 64%@ 1 h
SIF ([3]; % remaining @ 1 h): 61%@ 1 h

SMILES: CC(C)OCCn1c(=S)[nH]c(=O)c2c1ccn2COC(N)=O [Example 181, Carbamic acid 1-(2-isopropoxy-ethyl)-4-oxo-2-thioxo-1,2,3,4-tetrahydro-pyrrolo[3,2-d]pyrimidin-5-ylmethyl ester]
SGF [1, 13]: 82%
Papp at 90 min, 10 µM [2, 14]: 21.8 ×10⁻⁶ cm/s
human Plasma stability (Plasma Stability; [15]): 99%
SIF [3, 16]: 97%

SMILES: CC(C)C[C@H](N)C(=O)OCCCCC(=O)OCn1ccc2c1c(=O)[nH]c(=S)n2CCOC(C)C.O=C(O)C(F)(F)F [Example 345, trifluoroacetic acid 5-oxo-5-({4-oxo-1-[2-(propan-2-yloxy)ethyl]-2-sulfanylidene-1H,2H,3H,4H,5H-pyrrolo[3,2-d]pyrimidin-5-yl}methoxy)pentyl (2S)-2-amino-4-methylpentanoate]
SGF ([1]; % remaining @ 1 h): 71% remaining
Papp at 90 min, 10 µM ([2]; Caco-2, pH 7.4): < 0.0662 ×10⁻⁶ cm/s
human Plasma stability (Plasma Stability; % remaining @ 1 h): 77% remaining
SIF ([3]; % remaining @ 1 h): 2% remaining at
